Test results: patent US10421770B2, “Pharmaceutical composition of carboplatin based co-crystals and use thereof” (SYN-NAT PRODUCTS ENTERPRISE LLC, priority 2015, dated 2019)
Where two headings read alike, the source gives them in different places.

Experiments:
[1] = tested on: HL-7002 cells; assay: cell viability (MTS) assay, fetal hepatocytes HL-7002; format: cell-based, human; conditions: HL-7002 immortalized fetal hepatic cells, 0.01 to 300 μM, OD490, read-out: IC50 to reduce HL-7002 cell number
Protocol: (§1) The index of cell growth repression ratio was obtained by comparing the OD490 data of treatment group to the negative control. The drug response rate IC50 was calculated with the SPSS 16.0 system.
(§2) Cell culture: Prostate cancer cell lines LNCaP and PC-3 were purchased from ATCC (Manassas, Va.). The fetal hepatocytes HL-7002 and human embryonic kidney cells […] were purchased from ATCC. The cells were cultured in RPMI+5% Fetal Bovine Serum (FBS).
(§3) The cells treated with the solvents were used as the negative control, and cisplatin and docetaxel were used as the positive controls. The cells were monitored daily, and the cell viability was evaluated with the Promega CellTiter 96 AQueous One Solution Cell Proliferation Assay (Promega, Madison, Wis., USA) according to the manufacture manuals. The cell viability was monitored at OD490 reading in a bio-spectrometer (Perkin Elmer, Walthan, Mass., USA).
(§4) Data analysis: The OD490 reading data were collected hourly from 1 h to 4 h after the addition of lysis buffer. The index of cell growth repression ratio was obtained by comparing the OD490 data of treatment to the negative control. The drug response rate IC50 was calculated with the SPSS 16.0.
The index of cell growth repression ratio was obtained by comparing the OD490 data of treatment group to the negative control. The drug response rate IC50 was calculated with the SPSS 16.0 system. […]

[2] = tested on: HEK293 cells; assay: cell viability (MTS) assay, embryonic kidney cell line HEK293; format: cell-based, human; conditions: HEK293 immortalized fetal kidney cells, 0.01 to 300 μM, OD490, read-out: IC50 to reduce HEK293 cells
Protocol: HEK293 cells are an immortalized human fetal kidney cell line. […] The index of cell growth repression ratio was obtained by comparing the OD490 data of treatment group to the negative control. The drug response rate IC50 was calculated with the SPSS 16.0 system.
as §2, §3, §4, §1
(§5) Cell culture: Colorectal cancer cell lines HCT-116 and HT29 were purchased from ATCC (Manassas, Va.). The fetal hepatocytes HL-7002 and human embryonic kidney cells […] were purchased from ATCC. The cells were cultured in RPMI+5% Fetal Bovine Serum (FBS).

[3] = tested on: HCT-116 cells; assay: cell viability (MTS) assay, HCT-116 colorectal cancer cells; format: cell-based; conditions: drugs 0.01 to 300 μM, OD490, read-out: IC50 to reduce HCT-116 cell number
Protocol: HCT-116 cells are a colorectal cancer cell line. […] The index of cell growth repression ratio was obtained by comparing the OD490 data of treatment group to the negative control. The drug response rate IC50 was calculated with the SPSS 16.0 system.
as §5, §3, §4

[4] = tested on: HT29 cells; assay: cell viability (MTS) assay, HT29 colorectal cancer cells; format: cell-based; conditions: OD490, read-out: IC50 to reduce HT29 cell number
Protocol: HT29 cells are a colorectal cancer cell line. […] The index of cell growth repression ratio was obtained by comparing the OD490 data of treatment group to the negative control. The drug response rate IC50 was calculated with the SPSS 16.0 system.
as §5, §3, §4

[5] = tested on: PC-3 cells; assay: cell viability (MTS) assay, PC-3 prostate cancer cells; format: cell-based; conditions: Homo sapiens, drugs 0.01 to 300 μM, OD490, read-out: IC50 to reduce PC-3 cell number
Protocol: The index of cell growth repression ratio was obtained by comparing the OD490 data of treatment group to the negative control. The drug response rate IC50 was calculated with the SPSS 16.0 system. […] The fetal hepatocytes HL-7002 and human embryonic kidney cells […] were purchased from ATCC. The cells were cultured in RPMI+5% Fetal Bovine Serum (FBS). […] The cells treated with the solvents were used as the negative control, and cisplatin and docetaxel were used as the positive controls. The cells were monitored daily, and the cell viability was evaluated with the Promega CellTiter 96 AQueous One Solution Cell Proliferation Assay (Promega, Madison, Wis., USA) according to the manufacture manuals. The cell viability was monitored at OD490 reading in a bio-spectrometer (Perkin Elmer, Walthan, Mass., USA). Data analysis: The OD490 reading data were collected hourly from 1 h to 4 h after the addition of lysis buffer. The index of cell growth repression ratio was obtained by comparing the OD490 data of treatment to the negative control. The drug response rate IC50 was calculated with the SPSS 16.0.

[6] = tested on: LNCaP cells; assay: cell viability (MTS) assay, LNCaP prostate cancer cells; format: cell-based; conditions: Homo sapiens, drugs 0.01 to 300 μM, OD490, read-out: IC50 to reduce LNCaP cell number
Protocol: The index of cell growth repression ratio was obtained by comparing the OD490 data of treatment group to the negative control. The drug response rate IC50 was calculated with the SPSS 16.0 system. Cell culture: Prostate cancer cell lines LNCaP and PC-3 were purchased from ATCC (Manassas, Va.). The fetal hepatocytes HL-7002 and human embryonic kidney cells […] were purchased from ATCC. The cells were cultured in RPMI+5% Fetal Bovine Serum (FBS). […] The cells treated with the solvents were used as the negative control, and cisplatin and docetaxel were used as the positive controls. The cells were monitored daily, and the cell viability was evaluated with the Promega CellTiter 96 AQueous One Solution Cell Proliferation Assay (Promega, Madison, Wis., USA) according to the manufacture manuals. The cell viability was monitored at OD490 reading in a bio-spectrometer (Perkin Elmer, Walthan, Mass., USA). Data analysis: The OD490 reading data were collected hourly from 1 h to 4 h after the addition of lysis buffer. The index of cell growth repression ratio was obtained by comparing the OD490 data of treatment to the negative control. The drug response rate IC50 was calculated with the SPSS 16.0.

SMILES: O=c1[nH]cc(F)c(=O)[nH]1 [5-FU, fluorouracil]
- IC50 ([1]; Homo sapiens, Hepatocyte): 4.42 µM
- IC50 ([2]; Homo sapiens): 3.74 µM
- IC50 ([3]; Homo sapiens): 4.21 µM
- IC50 ([4]; Homo sapiens, HT-29, drugs 0.01 to 300 μM): 7.56 µM

SMILES: O=C1[O][Pt]2([NH][C@@H]3CCCC[C@H]3[NH]2)[O]C1=O [oxaliplatin]
- IC50 [1]: 2.44 µM
- IC50 [2]: 10.1 µM
- IC50 [3]: 8.15 µM
- IC50 ([4]; drugs 0.01 to 300 μM): 30 µM

SMILES: CC(=O)O[C@@]12CO[C@@H]1C[C@H](O)[C@@]1(C)C(=O)[C@H](O)C3=C(C)[C@@H](OC(=O)[C@H](O)[C@@H](NC(=O)OC(C)(C)C)c4ccccc4)C[C@@](O)([C@@H](OC(=O)c4ccccc4)[C@H]21)C3(C)C [docetaxel]
- IC50 [5]: 49.9 µM
- IC50 [6]: 4.03 µM
- IC50 ([2]; Homo sapiens): 1.74 µM
